≈ marks a conversion by molar mass, not a printed value. Residues, ends and D or L forms follow the SMILES beside them. No end group written: not given here.
How the values were obtained:
[1] = test system: Escherichia coli, ATCC 25922; assay type: cell-based; conditions: non-clinical isolate; 37° C.; 3×10^6 cells per ml
Experimental: (§1) The antibacterial activities of the different peptides were determined by continuous monitoring of bacterial growth with a Bioscreen C microbiology reader (Labsystems Oy, Helsinki, Finland). The test was performed in 100-well flat-bottomed honeycomb plates, in which 50 μl of test fractions were incubated with 50 μl of a suspension of an actively growing culture of bacteria diluted in Mueller Hinton medium to a starting concentration of 3×10^4 cells per ml. The Gram-negative bacteria, Listonella (Vibrio) anguillarum, serotype O2 (FT 1801, a fish pathogenic strain), Pseudomonas aeruginosa and E. coli (ATCC 25922), and the Gram-positive bacteria, C. glutamicum (ATCC 13032) and S. aureus (ATCC 9144), were chosen as test bacteria. The growth chamber was maintained at either 20 or 37° C. during the incubation period. The absorbance was measured at 2 h intervals for 48 h by a turbidometric method with vertical light photometry and a wide band filter (420-580 nm), which is more insensitive to color change in the sample compared to single wavelength detection. Antibacterial activity was determined when the optical density (OD) of the growth control (bacteria plus water) reached an absorbance of 0.3-0.4. Fractions were regarded as active when the OD was less than 50% of the growth control. Polymyxin B (Sigma, St. Louis, Mo., USA), Lactoferricin B, Cecropin P1 and Hyalophora cecropia Cecropin B were used as reference.
(§2) The antimicrobial molecules were also tested against drug resistant clinical isolates, such as the commonly encountered multi-resistant human pathogen S. aureus (MRSA) K15-64 and the glycopeptide (vancomycin)-resistant Enterococccus faecium (GREF) K9-28. The non-clinical isolates Escherichia coli (ATCC 25922), Pseudomonas aeruginosa (ATCC 27853), Corynebacterium glutamicum (ATCC 13032), and Staphylococcus aureus (ATCC 9144) were also tested for comparison. Serial dilutions of synthetic peptides were made in double distilled water and tested according to the method described above. However, in these experiments the starting concentration of bacteria were 3×10^6 cells per ml and the temperature in the growth chamber was 37° C. Polymyxin B was used as positive control for the Gram-negative bacteria.

[2] = test system: Pseudomonas aeruginosa ATCC 27853; assay type: cell-based; conditions: non-clinical isolate; 37° C.; 3×10^6 cells per ml
Experimental: as §1, §2

[3] = test system: human breast malignant carcinoma cell line MCF-7; assay type: cell-based; conditions: human, 24 h
[4] = test system: human skin malignant melanoma cell line A2058; assay type: cell-based; conditions: human, 24 h
in vitro = assay type: cell-based, human; conditions: human
Experimental: (§3) The toxicity of test peptides on THP-1 cells was measured using the MIT method (Mosmann, 1983), with minor modifications. To induce monocyte-macrophage differentiation, THP-1 cells were cultured in 96-well culture plates (10^6 cells/well) in a volume of 100 μl RPMI 1640 medium, containing 50 ng/ml PMA (which is known to induce the maturation of monocytes) and incubated in a humidified atmosphere of 5% CO2 at 37° C. for 48 hours. The medium was then removed and the cells were washed with PBS, added 100 μl fresh medium (without PMA) and incubated for another 24 hours. Medium was removed and the adherent macrophages were treated with 100 μl of peptide solution (concentrations ranging from 0 to 800 μg/ml), diluted in RPMI-1640 assay medium without FBS. After incubation at 37° C. for 1 hour, the cells were added LPS (0.1 μg/ml) and further incubated for 4 hours. Cells treated with Triton X-100 (1%) were used as positive control (100% killing) whereas cells plus medium only were used as negative control. Following the incubation period, 10 μl MTT (5 mg/ml) dissolved in phosphate-buffered saline (PBS) was added to each well, and the plate was further incubated for 2 hours. A volume of 70 μl of the supernatant was then removed and 100 μl acid alcohol (0.04 M HCl in isopropanol) added to each well to dissolve the dark blue crystals. The plate was placed on a shaker for 1 hour at room temperature and read spectrophotometrically at 595 nm in a microtiter plate reader (DTX880 Multimode Detector, Beckman Coulter). Cell survival (%) was then determined from the ΔA595 nm relative to negative control (100% living cells) and expressed as 50% inhibitory concentration (IC50). The IC50 values were estimated from the dose-response curves, which were obtained by averaging at least 3 parallel experiments.

THP-1 cells = experiment: in vitro; assay type: cell-based, human
Experimental: as §3

| Molecule | Minimal inhibitory concentration, Escherichia coli, ATCC 25922 [1] | Minimal inhibitory concentration, Pseudomonas aeruginosa ATCC 27853 [2] | IC50 [3] | IC50 [4] | CC50 at 5 h (in vitro) | Toxicity to THP-1 cells TC50 (THP-1 cells) |
| --- | --- | --- | --- | --- | --- | --- |
| CC[C@H](C)[C@H](NC(=O)CNC(=O)[C@H](CO)NC(=O)[C@H](CCCCN)NC(=O)[C@@H](NC(=O)[C@H](C)NC(=O)[C@H](Cc1c[nH]cn1)NC(=O)[C@H](CO)NC(=O)[C@@H](NC(=O)[C@H](CCCCN)NC(=O)[C@H](Cc1c[nH]cn1)NC(=O)[C@H](Cc1ccccc1)NC(=O)[C@@H](NC(=O)[C@H](CCCCN)NC(=O)[C@H](CCCCN)NC(=O)[C@H](Cc1ccccc1)NC(=O)C(Cc1c[nH]c2ccc(Br)cc12)NC(=O)CN)[C@@H](C)O)C(C)C)C(C)C)C(=O)N[C@@H](Cc1c[nH]cn1)C(=O)N[C@@H](C)C(=O)NCC(=O)N[C@@H](CCC(N)=O)C(=O)N[C@@H](CCCNC(=N)N)C(=O)NCC(=O)N[C@@H](CS)C(=O)N[C@@H](CO)C(=O)N[C@@H](C)C(=O)N[C@@H](CC(C)C)C(=O)NCC(=O)N[C@@H](Cc1ccccc1)C(=O)O (some centres unmarked) [P17 HC-Br] (HELM PEPTIDE1{G.[O=C(C(Cc1c[nH]c2ccc(Br)cc12)N[*:1])[*:2]].F.K.K.T.F.H.K.V.S.H.A.V.K.S.G.I.H.A.G.Q.R.G.C.S.A.L.G.F}$$$$V2.0) | 6.25 µM (≈ 20.8 µg/mL) | 6.25 µM (≈ 20.8 µg/mL) | < 10 µM | < 10 µM | 51.1 µM | – |
| GWFKKTFHKVSHAVKSGIHAGQRGCSALGF [P17 HC] | 6.25 µM | 6.25 µM | < 10 µM | < 10 µM | 38 µM | – |
| GWFKKTFHKVSHAVKSGIHA [P17 HC (1-20)] | – | – | – | – | – | —^b |
